pIC50: −log10 of the molar value.
What was measured:
ICE (IL-1β protease) = biological target: T1, ICE (IL-1β protease) (Homo sapiens, UniProt P29466); test: enzyme assay, second order rates of inactivation of ICE; assay type: biochemical; conditions: in vitro; read-out: kobs/[I] (IL-1β protease inhibition, second order rate of inactivation)
T1 sequence (P29466 120-297 limits assumed): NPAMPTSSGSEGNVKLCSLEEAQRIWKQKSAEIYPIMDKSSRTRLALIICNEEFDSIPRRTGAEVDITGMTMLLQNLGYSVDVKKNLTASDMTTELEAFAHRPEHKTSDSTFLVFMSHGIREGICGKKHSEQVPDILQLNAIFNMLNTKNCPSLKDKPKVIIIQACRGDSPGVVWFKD
T1 sequence (P29466 317-404 limits assumed): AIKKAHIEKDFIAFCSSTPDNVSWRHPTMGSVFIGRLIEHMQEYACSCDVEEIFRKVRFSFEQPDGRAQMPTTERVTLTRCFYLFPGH
Description: Second order rates of inactivation were obtained by using the enzyme assay described in Dolle, R. E.; et al., J. Med Chem. (1994), 37, 563. […] In the case of these reversible inhibitors, the in vitro assay was modified to obtain the reversible Ki * as follows: […]

[1] = system: mature IL-1β release from human monocytes; test: human monocyte pulse chase assay, inhibition of release of mature IL-1β (called In Vivo Assay); assay type: cell-based; conditions: human monocytes stimulated with fixed S. aureus
Method: In vivo inhibition (IC50) was determined as follows:
Human monocytes were isolated from heparinized leukopheresis units obtained through Biological Specialty Corporation (Lansdale, Pa.). Monocytes were purified by Ficoll-Hupaque (Pharmacia Fine Chemicals, Piscataway, N.J.) gradient centrifugation and more than 95% pure monocyte populations obtained by centrifugal elutriation. The assay was performed on duplicate samples of freshly isolated human monocytes, cultured in suspension at 37° C. and rotated gently in conical bottom polypropylene tubes (Sardstedt Inc., Princeton, N.J.). Human monocytes at a concentration of 5×10^6 cells/mL were resuspended in 1 mL of RPMI 1640 (a common tissue buffer from M. A. Bioproducts, Walkersville, Md.) containing 1% fetal calf serum (FCS) (HyClone, Logan, Utah) and 50 μg/mL gentamycin (Gibco, Grand Island, N.Y.). The cells were treated either with a compound of the invention (i.e. test compound) or with a non-inhibitor (control compound, typically 0.03% DMSO) for 15 minutes and then activated with 0.01% fixed Staphylococcus aureus (The Enzyme Center, Malden, Mass.) for 1 hour. The cells were then centrifuged and resuspended in 1 mL of cysteine, methionine-free RPMI media containing 1% dialyzed FCS (Hyclone). The cells were pretreated with a test compound or control compound for 15 minutes after which 0.01% fixed S. aureus plus 100 μCi Tran 35-S label (ICN, Irvine, Calif.) was added and the cells incubated at 37° C. for 1 hour. After incubation, cells were centrifuged, washed once in phosphate buffer saline and resuspended in 1 mL RPMI containing 1% fetal calf serum. The cells were again pretreated with a test or control compound for 15 minutes and then 0.01% S. aureus for 2 hours. At the end of the incubation, cells were centrifuged and supernates saved for immunoprecipitation. Cells were washed once in phosphate buffer saline and then lysed in RIPA, a continuous cell media buffer containing 2 mM phenylmethylsulfonyl fluoride, 10 mM iodoacetate, 1 μg/mL pepstatin A, 1 μg/mL leupeptin and 0.5 TIU aprotinin.
For the immunoprecipitations, an equal volume of 1% dry milk in RIPA buffer plus 50 μL of resuspended protein A sepharose CL-4B (Pharmacia, Piscataway, N.Y.) was added to supernates and 1 mL of 4% dry milk containing protein A sepharose CL-4B to cell lysates and samples rotated for 30 minutes at 4° C. Beads were then centrifuged down, samples transferred to fresh tubes and incubated overnight with 40 μg rabbit anti-human IL-1β polyclonal antibody (Genzyme, Cambridge, Mass.). The IL-1β proteins were then precipitated with 70 μL protein A sepharose, resuspended in 60 μL SDS sample buffer and run on 15% SGD-PAGE gels. Autoradiography was performed on dried gels and the amount of radioactivity (counts per minute, cpm) quantitated using a Betascope 603 analyzer.
In the monocyte pulse chase assay, each test parameter was run in duplicate. Data was collected from the Beta Scope using a personal computer, then transferred to the VAX system for calculation of mean cpm and standard deviation of the mean. When test compounds were evaluated, the percent inhibition of release of mature IL-1β was calculated as follows:
100×[1-(cells treated with stimuli+test compound-unstimulated cells)/(cells treated with stimuli+control compound-unstimulated cells)]
These % inhibition values were then used to calculate IC50 value for each compound. Since the human monocyte pulse chase assay uses primary cells from different donors, each test compound was run in 2-3 separate experiments, using monocytes from 2-3 different donors.

IL-1 receptor = conditions: cited from earlier work

Row | kinact/KI (ICE (IL-1β protease)) | pIC50 [1] | Compound | joint swelling and disease activity (IL-1 receptor; after three weeks of daily treatment, subcutaneous) | antiinflammatory activity (IL-1 receptor; patients with active rheumatoid arthritis, subcutaneous 20, 70 and 200 mg) | effectiveness by dosing frequency (IL-1 receptor; subcutaneous 20, 70 and 200 mg)
1 | > 10000 M⁻¹ s⁻¹ | > 5.00 | CN(C)Cc1ccc(C(=O)N[C@H]2CCC(=O)N3CCC[C@@H](C(=O)N[C@@H](CC(=O)O)C(=O)COc4cc(C(F)(F)F)nn4-c4ccc(Cl)cc4)N3C2=O)cc1 [Example 1] |  |  | 
2 | > 10000 M⁻¹ s⁻¹ | > 5.00 | O=C(O)C[C@H](NC(=O)[C@@H]1CCCN2C(=O)CC[C@H](NC(=O)OCc3ccccc3)C(=O)N12)C(=O)COC(=O)c1c(Cl)cccc1Cl [Example 3] |  |  | 
3 | > 10000 M⁻¹ s⁻¹ | > 5.00 | O=C(O)C[C@H](NC(=O)[C@@H]1CCCN2C(=O)CC[C@H](NC(=O)OCc3ccccc3)C(=O)N12)C(=O)COc1cc(C(F)(F)F)nn1-c1ccccc1 [Example 4] |  |  | 
4 | > 10000 M⁻¹ s⁻¹ | > 5.00 | O=C(O)C[C@H](NC(=O)[C@@H]1CCCN2C(=O)CC[C@H](NC(=O)OCc3ccccc3)C(=O)N12)C(=O)COc1cc(C(F)(F)F)nn1-c1ccc(Cl)cc1 [Example 5] |  |  | 
5 | > 10000 M⁻¹ s⁻¹ | > 5.00 | O=C(O)C[C@H](NC(=O)[C@@H]1CCCN2C(=O)CC[C@H](NC(=O)OCc3ccccc3)C(=O)N12)C(=O)COc1cc(C(F)(F)F)nn1-c1ccccn1 [Example 6] |  |  | 
6 | > 10000 M⁻¹ s⁻¹ | > 5.00 | O=C(O)C[C@H](NC(=O)[C@@H]1CCCN2C(=O)CC[C@H](NC(=O)c3ccccc3)C(=O)N12)C(=O)COc1cc(C(F)(F)F)nn1-c1ccc(Cl)cc1 [Example 7] |  |  | 
7 | > 10000 M⁻¹ s⁻¹ | > 5.00 | O=C(O)CSc1ccc(C(=O)N[C@H]2CCC(=O)N3CCC[C@@H](C(=O)N[C@@H](CC(=O)O)C(=O)COc4cc(C(F)(F)F)nn4-c4ccc(Cl)cc4)N3C2=O)cc1 [Example 8] |  |  | 
8 | > 10000 M⁻¹ s⁻¹ | > 5.00 | O=C(O)CCSc1ccc(C(=O)N[C@H]2CCC(=O)N3CCC[C@@H](C(=O)N[C@@H](CC(=O)O)C(=O)COc4cc(C(F)(F)F)nn4-c4ccc(Cl)cc4)N3C2=O)cc1 [Example 9] |  |  | 
9 | > 10000 M⁻¹ s⁻¹ | > 5.00 | CC(C)COC(=O)N[C@H]1CCC(=O)N2CCC[C@@H](C(=O)N[C@@H](CC(=O)O)C(=O)COc3cc(C(F)(F)F)nn3-c3ccc(Cl)cc3)N2C1=O [Example 10] |  |  | 
10 | > 10000 M⁻¹ s⁻¹ | > 5.00 | CN(C)Cc1ccc(C(=O)N[C@H]2CCC(=O)N3CCC[C@@H](C(=O)N[C@@H](CC(=O)O)C(=O)COC(=O)c4c(Cl)cccc4Cl)N3C2=O)cc1 [Example 11] |  |  | 
11 | > 10000 M⁻¹ s⁻¹ | > 5.00 | O=C(O)CCc1ccc(C(=O)N[C@H]2CCC(=O)N3CCC[C@@H](C(=O)N[C@@H](CC(=O)O)C(=O)COc4cc(C(F)(F)F)nn4-c4ccc(Cl)cc4)N3C2=O)cc1 [Example 12] |  |  | 
12 | > 10000 M⁻¹ s⁻¹ | > 5.00 | O=C(O)C[C@H](NC(=O)[C@@H]1CCCN2C(=O)CC[C@H](NC(=O)c3ccc(CN4CCOCC4)cc3)C(=O)N12)C(=O)COC(=O)c1c(Cl)cccc1Cl [Example 13, [9-(4-(N-Morpholinomethyl)benzoylamino)octahydro-6,10-dioxo-6H-pyridazino[1 ,2a][1,2]diazepine-1-formoyl]-L-aspartic acid 2,6-dichlorobenzoyloxymethyl ketone] |  |  | 
13 | > 10000 M⁻¹ s⁻¹ | > 5.00 | CN1CCN(Cc2ccc(C(=O)N[C@H]3CCC(=O)N4CCC[C@@H](C(=O)N[C@@H](CC(=O)O)C(=O)COC(=O)c5c(Cl)cccc5Cl)N4C3=O)cc2)CC1 [Example 14, [9-(N-[4-(N-Methylpiperazino)methyl]benzoylamino)octahydro-6,10-dioxo-6H-pyridazino [1,2a][1,2]diazepine-1-formoyl]-L-aspartic acid 2,6-dichlorobenzoyloxymethyl ketone] |  |  | 
14 | > 10000 M⁻¹ s⁻¹ | > 5.00 | Cc1nccn1Cc1ccc(C(=O)N[C@H]2CCC(=O)N3CCC[C@@H](C(=O)N[C@@H](CC(=O)O)C(=O)COC(=O)c4c(Cl)cccc4Cl)N3C2=O)cc1 [Example 15, [9-(4-(N-(2-Methyl)imidazolylmethyl)benzoylamino)octahydro-6,10-dioxo-6H-pyridazino[1,2a][1,2]diazepine-1-formoyl]-L-aspartic acid 2,6-dichlorobenzoyloxymethyl ketone] |  |  | 
15 | > 10000 M⁻¹ s⁻¹ | > 5.00 | O=C(O)C[C@H](NC(=O)[C@@H]1CCCN2C(=O)CC[C@H](NC(=O)c3ccc4[nH]cnc4c3)C(=O)N12)C(=O)COC(=O)c1c(Cl)cccc1Cl [Example 16, [9-(5-Benzimidazoylamino)octahydro-6,10-dioxo-6H-pyridazino[1,2a][1,2]diazepine-1-formoyl]-L-aspartic acid 2,6-dichlorobenzoyloxymethyl ketone] |  |  | 
16 | > 10000 M⁻¹ s⁻¹ | > 5.00 | O=C(O)C[C@H](NC(=O)[C@@H]1CCCN2C(=O)CC[C@H](NC(=O)c3ccc4[nH]nnc4c3)C(=O)N12)C(=O)COC(=O)c1c(Cl)cccc1Cl [Example 17, [9-(5-Bentriazoylamino)octahydro-6,10-dioxo-6H-pyridazino[1,2a][1,2]diazepine-1-formoyl]-L-aspartic acid 2,6-dichlorobenzoyloxymethyl ketone] |  |  | 
17 | > 10000 M⁻¹ s⁻¹ | > 5.00 | CCOC(=O)n1nnc2cc(C(=O)N[C@H]3CCC(=O)N4CCC[C@@H](C(=O)N[C@@H](CC(=O)O)C(=O)COC(=O)c5c(Cl)cccc5Cl)N4C3=O)ccc21 [Example 18, [9-(N-Carboethoxy-5-bentriazoylamino)octahydro-6,10-dioxo-6H-pyridazino[1,2 a][1,2]diazepine-1-formoyl]-L-aspartic acid 2,6-dichlorobenzoyloxymethyl ketone] |  |  | 
18 | > 10000 M⁻¹ s⁻¹ | > 5.00 | CCOC(=O)n1cnc2cc(C(=O)N[C@H]3CCC(=O)N4CCC[C@@H](C(=O)N[C@@H](CC(=O)O)C(=O)COC(=O)c5c(Cl)cccc5Cl)N4C3=O)ccc21 [Example 19, [9-(N-Carboethoxy-5-benzimidazoylamino)octahydro-6,10-dioxo-6H-pyridazino[1 ,2a][1,2]diazepine-1-formoyl]-L-aspartic acid 2,6-dichlorobenzoyloxymethyl ketone] |  |  | 
19 | > 10000 M⁻¹ s⁻¹ | > 5.00 | O=C(O)CCCc1ccc(C(=O)N[C@H]2CCC(=O)N3CCC[C@@H](C(=O)N[C@@H](CC(=O)O)C(=O)COc4cc(C(F)(F)F)nn4-c4ccc(Cl)cc4)N3C2=O)cc1 [Example 20] |  |  | 
20 | > 10000 M⁻¹ s⁻¹ | > 5.00 | O=C(O)C[C@H](NC(=O)[C@@H]1CCCN2CCC[C@H](NC(=O)OCc3ccccc3)C(=O)N12)C(=O)COC(=O)c1c(Cl)cccc1Cl [Example 23] |  |  | 
21 | > 10000 M⁻¹ s⁻¹ | > 5.00 | O=C(O)C[C@H](NC(=O)[C@@H]1CCCN2C(=O)CC[C@H](NC(=O)OCc3ccccc3)C(=O)N12)C(=O)COc1cc(C(F)(F)F)nn1-c1ccc(Cl)cn1 [Example 24] |  |  | 
22 | > 10000 M⁻¹ s⁻¹ | > 5.00 | CN(C)Cc1ccc(C(=O)N[C@H]2CCC(=O)N3CCC[C@@H](C(=O)N[C@@H](CC(=O)O)C(=O)COc4cc(C(F)(F)F)nn4-c4ccccn4)N3C2=O)cc1 [Example 25] |  |  | 
23 |  |  | Antril: The IL-1 receptor antagonist, Antril (Synergen) | decrease in joint swelling and less disease activity | significant antiinflammatory activity | most effective when taken daily
